Test results: patent US6608082B1, “Treatment of erectile dysfunction using isoquinoline compound melanocortin receptor ligands” (Lion Bioscience AG, priority 1998, dated 2003)
Like-named read-outs stand apart in the source and are kept apart here.

Target: T1, MCR-1 (Homo sapiens, UniProt Q01726)
T1 construct: expressed in transfected cells; host or cells: HEK 293
Assay: Melanocortin receptor binding assay, competition with 125I-HP 467, HEK 293 cells expressing hMCR-1
Conditions: for % Disp. MC-1 10 μM: displacement of 125I-HP 467 at 10 μM isoquinoline compound; for % Disp. of 125I-HP 467 (first of duplicate) / % Disp. of 125I-HP 467 (second of duplicate): 10 μM isoquinoline compound; for % Disp. of 125I-HP 467 (first of duplicate): HEK 293 cells expressing MCR-1, duplicate 1; for % Disp. of 125I-HP 467 (second of duplicate): HEK 293 cells expressing MCR-1, duplicate 2; for IC50: read-out: MC-1 IC50
Procedure: All cell culture media and reagents were obtained from GibcoBRL (Gaithersburg Md.), except for COSMIC CALF SERUM (HyClone; Logan Utah).
Cells were suspended in PBS, 10% COSMIC CALF SERUM and 1 mM CaCl2. Cell suspensions were prepared at a density of 2×10^4 cells/ml for HEK 293 cells expressing hMCR-3, hMCR-4 or hMCR-5, and 1×10^5 cells/ml for HEK 293 cells expressing hMCR-1. Suspensions were placed in a water bath and allowed to warm to 37° C. for 1 hr.
Binding assays were performed in a total volume of 250 μl for HEK 293 cells. […] To each tube was added 4×10^3 HEK 293 cells expressing hMCR-3, hMCR-4 or hMCR-5, or 2×10^4 cells expressing hMCR-1. Assays were incubated for 2.5 hr at 37° C.
GF/B filter plates were prepared by soaking for at least one hour in 5 mg/ml BSA and 10 mM CaCl2. Assays were filtered using a Brandel 96-well cell harvester (Brandel Inc.; Gaithersburg, Md.). The filters were washed four times with cold 50 mM Tris, pH 7.4, the filter plates were dehydrated for 2 hr and 35 μl of MICROSCINT was added to each well. Filter plates were counted using a Packard Topcount (Packard Instrument Co.) and data analyzed using GraphPad PRISM v2.0 (GraphPad Software Inc.; San Diego Calif.) and Microsoft EXCEL v5.0a (Microsoft Corp.; Redmond Wash.).
To assay isoquinoline compounds, binding assays were performed in duplicate in a 96 well format. […] A 0.2 ml aliquot of suspended cells was added to each well to give the cell numbers indicate above, and the cells were incubated at 37° C. for 2.5 hr. Cells were harvested on GF/B filter plates as described above and counted.

[1] = competition with 125I-HP 467, HEK 293 cells expressing MCR-1
[2] = inhibition of binding of 125I-HP 467, HEK 293 cells expressing MCR-1

T1 sequence (Q01726 whole entry): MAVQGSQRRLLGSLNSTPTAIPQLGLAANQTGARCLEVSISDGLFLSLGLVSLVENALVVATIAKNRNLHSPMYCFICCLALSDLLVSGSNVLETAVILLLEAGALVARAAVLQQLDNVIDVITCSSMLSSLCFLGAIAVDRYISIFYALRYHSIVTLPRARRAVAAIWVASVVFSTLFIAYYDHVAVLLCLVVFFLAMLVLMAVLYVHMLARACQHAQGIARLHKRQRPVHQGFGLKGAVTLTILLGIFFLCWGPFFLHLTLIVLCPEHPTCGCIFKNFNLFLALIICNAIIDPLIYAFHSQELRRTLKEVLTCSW

SMILES	% Disp. MC-1 10 μM (first of duplicate)	% Disp. MC-1 10 μM (second of duplicate)	further results
CNC(CN)CN1Cc2ccccc2C(CNC2CCCCC2)C1c1ccc2ccccc2n1 (mixture of isomers) [TRG 2405-112]	42.2%	43.2%	
CNC(CN)CN1Cc2ccccc2C(CNC2CCCCC2)C1c1cc(Cl)cc(Cl)c1 (mixture of isomers) [TRG 2405-120]	52.4%	54.3%	
CNC(CN)CN1Cc2ccccc2C(CNC2CCCCC2)C1c1ccc([N+](=O)[O-])cc1 (mixture of isomers) [TRG 2405-161]	58.4%	59.1%	
CNC(CN)CCCCN1Cc2ccccc2C(CNC2CCCCC2)C1c1ccccc1O (mixture of isomers) [TRG 2405-182]			% Disp. of 125I-HP 467 (first of duplicate): 37.5%; % Disp. of 125I-HP 467 (second of duplicate): 44.4%
CNC(CN)CCCCN1Cc2ccccc2C(CNC2CCCCC2)C1c1ccc2c(c1)OCCO2 (mixture of isomers) [TRG 2405-183]			% Disp. of 125I-HP 467 (first of duplicate): 58.9%; % Disp. of 125I-HP 467 (second of duplicate): 64.1%
CNC(CN)CCCCN1Cc2ccccc2C(CNC2CCCCC2)C1c1cc(Cl)cc(Cl)c1Cl (mixture of isomers) [TRG 2405-187]			% Disp. of 125I-HP 467 (first of duplicate): 64.6%; % Disp. of 125I-HP 467 (second of duplicate): 59.3%
CNC(CN)CCCCN1Cc2ccccc2C(CNC2CCCCC2)C1c1ccc(F)c(F)c1 (mixture of isomers) [TRG 2405-207]			% Disp. of 125I-HP 467 (first of duplicate): 65%; % Disp. of 125I-HP 467 (second of duplicate): 65.5%
CNC(CN)CCCCN1Cc2ccccc2C(CNC2CCCCC2)C1c1cccc(Oc2ccc(Cl)c(Cl)c2)c1 (mixture of isomers) [TRG 2405-213]			% Disp. of 125I-HP 467 (first of duplicate): 80%; % Disp. of 125I-HP 467 (second of duplicate): 78.1%
CNC(CN)CCCCN1Cc2ccccc2C(CNC2CCCCC2)C1c1ccc(OC)c(C)c1 (mixture of isomers) [TRG 2405-226]			% Disp. of 125I-HP 467 (first of duplicate): 79.1%; % Disp. of 125I-HP 467 (second of duplicate): 77.7%
CNC(CN)CCCCN1Cc2ccccc2C(CNC2CCCCC2)C1c1ccsc1 (mixture of isomers) [TRG 2405-233]			% Disp. of 125I-HP 467 (first of duplicate): 53.6%; % Disp. of 125I-HP 467 (second of duplicate): 42.8%
CNC(CN)CCCCN1Cc2ccccc2C(CNC2CCCCC2)C1c1ccc(OC)c2ccccc12 (mixture of isomers) [TRG 2405-248]			% Disp. of 125I-HP 467 (first of duplicate): 56.5%; % Disp. of 125I-HP 467 (second of duplicate): 67.9%
CNC(CN)CCCCN1Cc2ccccc2C(CNC2CCCCC2)C1c1ccc([N+](=O)[O-])c(O)c1 (mixture of isomers) [TRG 2405-250]			% Disp. of 125I-HP 467 (first of duplicate): 34.7%; % Disp. of 125I-HP 467 (second of duplicate): 50.5%
CNC(CN)CCCCN1Cc2ccccc2C(CNC2CCCCC2)C1c1ccc[nH]1 (mixture of isomers) [TRG 2405-265]			% Disp. of 125I-HP 467 (first of duplicate): 60.5%; % Disp. of 125I-HP 467 (second of duplicate): 54.1%
CNC(CN)CCCCN1Cc2ccccc2C(CNC2CCCCC2)C1c1ccc(S(C)(=O)=O)cc1 (mixture of isomers) [TRG 2405-267]			% Disp. of 125I-HP 467 (first of duplicate): 21.5%; % Disp. of 125I-HP 467 (second of duplicate): 8.4%
CNC(C)CNC(CN)CCCCN1Cc2ccccc2C(CNC2CCCCC2)C1c1ccc(-c2ccccc2)cc1 (mixture of isomers) [TRG 2411-15]			IC50 [1]: 730 nM
NCC(CCCCN1Cc2ccccc2C(CN)C1c1ccc(-c2ccccc2)cc1)NCc1ccccc1 (mixture of isomers) [TRG 2411-35]			IC50 [1]: 510 nM
CCCCNc1ccc(C2C(CNCCc3ccccc3)c3ccccc3CN2CCCCC(CN)NCCc2ccc(OC)cc2)cc1 (mixture of isomers) [TRG 2411-79]			IC50 [1]: 370 nM
CCCCNc1ccc(C2C(CN)c3ccccc3CN2CCCCC(CN)NCc2ccc(Cl)cc2)cc1 (mixture of isomers) [TRG 2411-108]			IC50 [1]: 160 nM
NCC(N)CCCN1Cc2ccccc2C(CN)C1c1ccc(-c2ccccc2)cc1 (mixture of isomers) [TRG 2411-136]			IC50 [1]: 1730 nM
CNC(C)CNC(CN)CCCN1Cc2ccccc2C(CN)C1c1ccc(-c2ccccc2)cc1 (mixture of isomers) [TRG 2411-142]			IC50 [1]: 1280 nM
CCNc1ccc(C2C(CN)c3ccccc3CN2CCCC(N)CN)cc1 (mixture of isomers) [TRG 2411-174]			IC50 [2]: 480 nM
CCNc1ccc(C2C(CN)c3ccccc3CN2CCCC(CN)NCC)cc1 (mixture of isomers) [TRG 2411-176]			IC50 [2]: 220 nM
CCNc1ccc(C2C(CN)c3ccccc3CN2CCCC(CN)NCCc2ccc3ccccc3c2)cc1 (mixture of isomers) [TRG 2411-185]			IC50 [2]: 100 nM
CNC(CN)CCCCN1Cc2ccccc2C(CNCCc2ccccc2)C1c1ccc([N+](=O)[O-])cc1 (mixture of isomers) [TRG 2413-5]			IC50 [2]: 4880 nM
NCCN1Cc2ccccc2C(CNC2CCCCC2)C1c1cccc2ccccc12 (stereo not shown) [TRG 2405-5]	53.6%	53.6%	
NCCN1Cc2ccccc2C(CNC2CCCCC2)C1c1ccccc1Br (stereo not shown) [TRG 2405-12]	38.7%	41.8%	

More lines, main results first:

% Disp. MC-1 10 μM (first of duplicate)	% Disp. MC-1 10 μM (second of duplicate)	SMILES	further results
85.3%	24.1%	NCCN1Cc2ccccc2C(CNC2CCCCC2)C1c1ccccc1 (mixture of isomers) [TRG 2405-1]	
47.3%	58.9%	CNC(CN)CN1Cc2ccccc2C(CNC2CCCCC2)C1c1cc(C(F)(F)F)cc(C(F)(F)F)c1 (mixture of isomers) [TRG 2405-118]	
49%	51.8%	CNC(CN)CN1Cc2ccccc2C(CNC2CCCCC2)C1c1ccc(OC)c(C)c1 (mixture of isomers) [TRG 2405-136]	
54.6%	50.4%	CNC(CN)CN1Cc2ccccc2C(CNC2CCCCC2)C1c1ccsc1 (mixture of isomers) [TRG 2405-143]	
52.8%	52.9%	CNC(CN)CN1Cc2ccccc2C(CNC2CCCCC2)C1c1ccc(Br)cc1 (mixture of isomers) [TRG 2405-152]	
26.1%	41.7%	CNC(CN)CN1Cc2ccccc2C(CNC2CCCCC2)C1c1ccc([N+](=O)[O-])c(O)c1 (mixture of isomers) [TRG 2405-160]	
42.9%	40.8%	NCCN1Cc2ccccc2C(CNC2CCCCC2)C1c1ccccc1O (stereo not shown) [TRG 2405-2]	
46.8%	44.2%	NCCN1Cc2ccccc2C(CNC2CCCCC2)C1c1ccc2c(c1)OCCO2 (stereo not shown) [TRG 2405-3]	
45.7%	50%	NCCN1Cc2ccccc2C(CNC2CCCCC2)C1c1ccc(F)c(F)c1F (stereo not shown) [TRG 2405-6]	
50.3%	54.8%	NCCN1Cc2ccccc2C(CNC2CCCCC2)C1c1cc(Cl)cc(Cl)c1Cl (stereo not shown) [TRG 2405-7]	
0%	26.1%	NCCN1Cc2ccccc2C(CNC2CCCCC2)C1c1cccc2c1OCO2 (stereo not shown) [TRG 2405-8]	
36.4%	33.4%	NCCN1Cc2ccccc2C(CNC2CCCCC2)C1c1cccc(F)c1F (stereo not shown) [TRG 2405-9]	
56.9%	53%	NCCN1Cc2ccccc2C(CNC2CCCCC2)C1c1ccc(Cl)cc1Cl (stereo not shown) [TRG 2405-10]	
45.1%	27%	NCCN1Cc2ccccc2C(CNC2CCCCC2)C1c1c(F)cccc1F (stereo not shown) [TRG 2405-11]	
